Measured values taken from patent US9555032B2, “Methods for treatment and prevention of tauopathies and amyloid beta amyloidosis by modulating CRF receptor signaling” (Research Development Foundation, priority 2007, dated 2017).
Entries after “also recorded” stand apart in the source; their conditions may differ.

How the values were obtained:
[1] = Gerhlert et al., 2007; cited from earlier work
[2] = Gerhlert et al., 2007; cited from earlier work; remark: listed apart in the source
[3] = system: tau phosphorylation (tau-P) at the AT8 and PHF-1 sites; assay: Acute restraint stress-induced tau phosphorylation, Western blot of hippocampal extracts, CRF-R1 antagonist pretreatment; assay type: in vivo, mouse
Method: Acute restraint stress involved placing mice in ventilated 50 ml conical tubes for 30 min; repeated stress involved 14 consecutive daily exposures. Animals were killed at various intervals ranging from 20 min to 24 hr after stress. Control mice were handled comparably, but were not otherwise manipulated.
The small molecule, CRF-R1-selective antagonist, antalarmin (Webster et al., 1996), was administered at 20 mg/kg by intraperitoneal (ip) injection 20 min before stress exposure. All animals were handled twice daily for 28 d prior to experimentation, and received daily mock ip injections to minimize stress of injection at testing. […]
After sedation, the animals were decapitated and the hippocampus was rapidly dissected and frozen on dry ice. […] Protein concentrations were determined using a BCA Protein Assay Kit (Pierce Biotechnology, Rockford, Ill.). […] Primary antibodies were detected with either anti-mouse or rabbit horseradish peroxidase-linked secondary antibodies (1:1000 Calbiochem, San Diego, Calif.) and developed with an enhanced chemiluminescence Western blot detection kit (Supersignal West Pico, Pierce Biotechnology). Background subtraction was performed and quantitative band intensity readings were obtained using NIH Image software. […]

[4] = system: PS/APP mouse AD model (amyloid plaques); assay: Amyloid plaque density in PS/APP transgenic mouse AD model with or without chronic variable stress; assay type: in vivo; settings: antalarmin 40 mg/kg/d ip; for density of plaques in cortex and hippocampus: sacrificed end of fifth month
Source text: The PS/APP mouse line was originally purchased from another research laboratory. These mice express the Swedish familial AD mutation of human amyloid precursor protein (APP) (APPK670N,M671L; line Tg2576) and the familial AD mutation of presenilin-1 (PSEN1-dE9) (Jankowsky et al., 2001). Hemizygous double mutant PS/APP offspring and non-transgenic mice were used in experimentation, as it has been reported that homozygote lines of Tg2576 cannot be generated (McGowan et al., 1999). Genotypes were determined by PCR analysis of ear or tail DNA.
For acute stress experiments, CRFR1-selective small molecule antagonist, antalarmin (Webster et al., 1996), was administered at 20 mg/kg by intraperitoneal (ip) injection 20 min before stress exposure. All animals were handled twice daily for at least 14d prior to experimentation, and receive daily mock ip injections to minimize stress of injection at testing. Antalarmin was solubilized in equal volumes of absolute ethanol and Cremaphor EL (Sigma-Aldrich, St. Louis, Mo.), as described (Webster et al., 1996; Pernar et al., 2004). This stock solution was diluted in prewarmed (50° C.) distilled water and adjusted to a final concentration of 4 mg/ml immediately prior to injection. For chronic administration, antalarmin was administered twice daily via ip injection (Wong et al., 1999).
CVS involved daily exposure to either two brief or one sustained stressor over 15d. Brief stressors included elevated plus maze exposure (30 min), shaker stress (30 min on an orbital shaker at 100 rpm), ip hypertonic saline injection (0.4 ml of 1.5M saline), restraint (30 min), tail suspension (10 min) and forced swimming (10 min in RT water). […]
There was no evidence of tau pathology (tangle formation), nor was it expected to develop in animals at this early stage of disease progression. […] While it remains to be determined whether this effect will maintain in older animals, and whether drug and/or stress exposure will affect tau pathology, the results provide an additional endorsement for considering CRFR1 as a therapeutic target in AD.

[5] = system: hippocampal tau-P (PHF-1 immunoreactivity); assay: Intracerebroventricular CRF injection, PHF-1 immunohistochemistry of hippocampus; assay type: in vivo, mouse; settings: 0.5 μg CRF icv, 40 min after administration
Source text: CRF-R1−/− (U.S. Pat. No. 6,147,275) and CRF-R2−/− (U.S. Pat. No. 6,353,152) mice, along with age-matched wt controls (n=3/group), were anesthetized with isoflurane, and implanted stereotaxically with 26-ga guide cannulae (Plastics One, Wallingford, Conn.) aimed to terminate above the lateral ventricle. Cannulae were affixed to the skull with dental acrylic adhering to jeweler's screws partially driven into the skull, and sealed externally with stylets. After 7 d recovery, stylets were replaced with 33-ga injection cannulae, and 2 hr later the animals were remotely injected with 0.5 μg synthetic mouse/human CRF in […] saline, or vehicle alone, over ˜1 min. To approximate the time frame used in acute stress experiments, animals were killed 40 min after icy injection and perfused for immunohistochemistry, as above. CRF was generously provided by Dr. J. Rivier (Salk Institute).
Mice were perfused with 4% paraformaldehyde, as previously described (Bittencourt and Sawchenko, 2000). 30 μm-thick frozen sections were cut on a sliding microtome and stored at −20° C. in cryoprotectant solution (20% glycerol and 30% ethylene glycol in 0.1 M phosphate buffer) until use. Free-floating sections containing the hippocampus were used to detect tau-P with PHF-1 (1:500) in mouse tissues using Mouse-on-Mouse Immunodetection Kit reagents (Vector, Burlingame, Calif.) to avoid detection of endogenous mouse immunoglobulin. Endogenous peroxidase was quenched with 0.3% hydrogen peroxide, followed by 1% sodium borohydride to reduce free aldehydes. Reaction product was developed using a nickel-enhanced glucose oxidase method (Shu et al., 1988).
To determine whether CRF is capable of independently eliciting hippocampal tau-P, wt and CRF-R-deficient mice were implanted with lateral ventricular cannulae for icy injection. Resultant PHF-1 immunoreactivity was examined 40 min after administration of CRF (0.5 μg in 5 μl) or vehicle (FIG. 4B). […] In contrast to stress effects, however, no labeling of pyramidal neurons or their processes was observed after icy CRF injections.

[6] = system: interstitial fluid levels of Aβ; settings: central CRF administration; APP transgenic mice; Kang et al., 2007; cited from earlier work

CCC(CC)c1cc(C)nn2c(-c3sc(N4CCOCC4)nc3Cl)c(C)nc12 [MTIP, 3-(4-Chloro-2-Morpholin-4-yl-Thiazol-5-yl)-8-(1-Ethylpropyl)-2,6-Dimethyl-Imidazo[1,2b]Pyridazine]
solubility [1]: favorable solubility
ability to cross the BBB [2]: has the ability to cross the BBB

CCCCN(CC)c1nc(C)nc2c1c(C)c(C)n2-c1c(C)cc(C)cc1C [antalarmin]
stress-induced increments in tau phosphorylation at the AT8 and PHF-1 sites ([3]; antalarmin 20 mg/kg ip 20 min before 30 min acute restraint, hippocampal extracts 20 min post-stress): prevented stress-induced increments in phosphorylation at both sites; also recorded: blocked the stress-induced increment
basal levels of tau-P at the AT8 or PHF-1 sites ([3]; antalarmin 20 mg/kg ip, unstressed mice, hippocampal extracts, relative to untreated controls): Neither antalarmin nor the vehicle used for its administration significantly altered basal levels of tau-P; also recorded: did not affect basal levels of phosphorylation
density of plaques (change by antagonist treatment) ([4]; both stressed and unstressed PS/APP mice, cerebral cortex): significantly reduced
density of plaques in cortex and hippocampus ([4]; stressed (CVS) PS/APP mice): 2.49 /mm^2
density of plaques in cortex and hippocampus ([4]; unstressed PS/APP mice): 1.15 /mm^2

CRF: synthetic mouse/human corticotropin-releasing factor peptide, injected icv (SEEPPISLDLTFHLLREVLEMARAEQLAQQAHSNRKLMEII)
hippocampal tau-P (PHF-1 labeling) after icv CRF ([5]; CRF-R1-/- mice): comparable to the low level seen in saline-injected controls
hippocampal tau-P (PHF-1 immunoreactivity) after icv CRF ([5]; CRF-R2-/- mice): robust increases in hippocampal tau-P
hippocampal tau-P (PHF-1 immunoreactivity) after icv CRF ([5]; wt mice): robust increases in hippocampal tau-P
interstitial fluid levels of Aβ [6]: can increase interstitial fluid levels of Aβ
